According to publication PMC10455244, “Alpha-Mangostin: A Potent Inhibitor of TRPV3 and Pro-Inflammatory Cytokine Secretion in Keratinocytes” (International Journal of Molecular Sciences, 2023):

Legend:
TRPV3 [1] = molecular target: T1, TRPV3 (Homo sapiens, UniProt Q8NET8); test: Whole-cell patch-clamp, carvacrol-evoked TRPV3 current in TRPV3-overexpressing HEK 293T cells; type: cell-based; parameters: host or cells: NHEK; settings: 1000 µM carvacrol, −100 mV, at higher concentrations
T1 sequence (Q8NET8 1-790): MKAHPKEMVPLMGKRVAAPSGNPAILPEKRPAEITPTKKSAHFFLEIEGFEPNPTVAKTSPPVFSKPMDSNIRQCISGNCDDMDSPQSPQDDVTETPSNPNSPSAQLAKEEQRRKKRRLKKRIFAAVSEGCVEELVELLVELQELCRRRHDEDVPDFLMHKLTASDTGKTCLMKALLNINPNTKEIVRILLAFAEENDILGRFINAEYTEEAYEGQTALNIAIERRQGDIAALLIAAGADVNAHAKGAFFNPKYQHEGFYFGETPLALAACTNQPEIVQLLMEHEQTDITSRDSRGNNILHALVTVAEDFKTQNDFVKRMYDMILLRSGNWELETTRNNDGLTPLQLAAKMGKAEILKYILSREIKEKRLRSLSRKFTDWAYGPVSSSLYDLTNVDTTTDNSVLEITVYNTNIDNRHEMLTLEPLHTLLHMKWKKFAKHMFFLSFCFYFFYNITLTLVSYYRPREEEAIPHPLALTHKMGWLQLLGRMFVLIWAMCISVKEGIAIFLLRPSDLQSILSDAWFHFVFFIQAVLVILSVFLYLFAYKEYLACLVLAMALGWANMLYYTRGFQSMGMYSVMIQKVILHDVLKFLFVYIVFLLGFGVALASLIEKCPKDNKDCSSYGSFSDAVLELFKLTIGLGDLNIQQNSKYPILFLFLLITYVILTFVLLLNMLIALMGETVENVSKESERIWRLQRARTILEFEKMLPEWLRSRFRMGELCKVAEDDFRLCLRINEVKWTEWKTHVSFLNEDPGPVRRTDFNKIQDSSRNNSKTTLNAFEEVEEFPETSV

IL-6 = test: ELISA, carvacrol-induced IL-6 release in NHEK; type: cell-based, human; settings: 1 µM with 300 µM carvacrol, 24 h
Description: Constitutive activation of TRPV3 due to continuous stimulation or the presence of Olmsted mutations causes noticeable skin inflammation due to the increased secretion of pro-inflammatory cytokines from the keratinocytes. Besides, in atopic dermatitis (AD), cytokine release from keratinocytes contributes to the inflammatory environment, which drives many characteristic AD symptoms. Therefore, we determined the effect of TRPV3 activation on cytokine release instead of TRPV3 expression and evaluated whether alpha-mangostin suppressed TRPV3-mediated cytokine secretion in normal human keratinocytes. The levels of secreted cytokines (interleukin (IL)-6, IL-8, and tumor necrosis factor-alpha (TNF-α)) were measured using enzyme-linked Immunosorbent assay (ELISA) kits due to their high sensitivity and quantitation ability. The cells were induced with 300 µM carvacrol, with or without 1 µM alpha-mangostin, and 10 µM 74a.
Figure 5 Alpha-mangostin (α-MG) inhibited carvacrol-induced cytokine release in NHEK cells and rescued carvacrol-induced cell death. (A) Alpha-mangostin inhibited the carvacrol-induced release of IL-8 and IL-6 in NHEK. Cells were induced by 300 µM carvacrol with or without either 1 µM alpha-mangostin or 10 µM 74a for 24 h before the ELISA assay. (B) Alpha-mangostin reduced cell death caused by carvacrol in human keratinocytes. […]

TRPV3 [2] = molecular target: T1, TRPV3; test: Whole-cell patch-clamp, 2-APB-evoked TRPV3 current in normal human epidermal keratinocytes (NHEK); type: cell-based; parameters: host or cells: NHEK; settings: 100 µM 2-APB, −100 mV, read-out: TRPV3 current inhibited to (normalized to maximum 2-APB response)

COc1c(O)cc2oc3cc(O)c(CC=C(C)C)c(O)c3c(=O)c2c1CC=C(C)C [Alpha-mangostin]
Effect on TRPV3 current induced by carvacrol (TRPV3 [1]): suppressed
Effect on IL-6 levels (IL-6): slightly decreased
activity at 0.3 µM (TRPV3 [2]; 0.3 µM): 75.1%
activity at 3 µM (TRPV3 [2]; 3 µM): 27%
